According to US10617677B2, “Nuclear transport modulators and uses thereof” (Biogen MA Inc., priority 2012, dated 2020):
pIC50: −log10 of the molar value.

Experiments:
NF-κB = NF-κB transcriptional activity in TNFα-induced HeLa cells; type: cell-based; conditions: Homo sapiens, 1 h pre-treatment, then 4 h of 20 ng/mL TNFα, average of three experiments, read-out: IC50, inhibition of NF-κB transcriptional activity
Protocol: The compounds were tested on HeLa (adenocarcinoma) cells to quantify their ability to inhibit NF-κB transcriptional activity. NF-κB activity was induced in HeLa cells by TNFα, and then the compounds were added to inhibit the induced NF-κB activity. Half maximal inhibitory concentrations (IC50) of several compounds, namely Compound 1, Compound 2 and Compound 12, were determined by dose response studies.
HeLa cells were plated in a 12-well plate (200,000 cells/well) and cultured in Eagle's Minimal Essential medium (EMEM) from Lonza supplemented with 10% heat-inactivated fetal bovine serum (Invitrogen) and 50 μg/mL penicillin/streptomycin (Invitrogen), and were left overnight to attach. Cells were pre-treated with serial diluted (started at 30 µM; 1:3 dilution) compounds for 1 h and then exposed to 20 ng/mL TNFα (Peprotech) for 4 h in serum free media. After the treatment, the cells were washed with PBS (Invitrogen), and lysed with RIPA buffer (Themo Scientific). The transcription activity of NF-κB in the cells was measured by Chemiluminescent Transcription Factor Assay kit (Thermo Scientific Catalog #89859), according to the manufacturer's instruction. Briefly, 1.5 mg/mL of RIPA lysed whole cell extract from each treatment were incubated in a 96-well plate bound with NF-κB biotinylated-consensus sequence. The active NF-κB transcription factor bound to the consensus sequence was incubated with NF-κB p65 primary antibody and then with a secondary HRP-conjugated antibody. A chemiluminescent substrate was added to the wells and the resulting signal was detected using a luminometer. Three separate experiments were analyzed for each concentration of the IC50 curves. XLFit model 205 was used to calculate IC50 curves.
Inhibition of NF-κB transcriptional activity was measured by serial dilutions of Compound 1, Compound 2 and Compound 12 after 1 h of compound pre-treatment followed by 4 h of 20 ng/mL TNFα exposure. Three independent experiments were scored for each concentration, with the average being presented here.

[1] = Brain to plasma ratio (B:P) in mice; type: in vivo
Protocol: Brain tissue following collection was rinsed with cold saline, dried on filter paper, weighed and snap-frozen by placing on dry ice. All samples were stored frozen at approximately −80° C. until analysis. […] Plasma samples were treated with the identical method (except homogenization step) and concentration of compound in either matrix was calculated based on the generated standard curves.

IMQ-induced psoriasis = test: Imiquimod (IMQ)-induced dermal inflammation/psoriasis model, Study 2; type: in vivo, mice; conditions: Compound 2 2.5 mg/kg, cyclophosphamide 10 mg/kg
Protocol: Forty (40) male BALB/c mice (Biological E Limited, Hyderabad (CPCSEA registration number: 36/99/CPCSEA)) were divided into four (4) groups consisting of ten (10) mice each. Animals were randomized based on their body weight. The groups were designated as Group-I (Naïve), Group-II (IMQ; vehicle (PEG 400 and HPBCD)), Group-III (IMQ; Compound 2 (2.5 mg/kg)) and […] (IMQ; cyclophosphamide (10 mg/kg)).
A small area on the dorsum of each mouse was shaved, ensuring that these areas were of equal size/area. Psoriasis was induced in Groups II to IV by topical application of 50 mg of IMQ cream daily from Day 1 to Day 6 on the dorsum of the animals. On Day 1 and Day 2 of the study, four hours after topical application of IMQ, Compound 2 or positive control (cyclophosphamide) or vehicle were administered to animals in pertinent groups. Of note, animals in Group II and Group III were subjected to subcutaneous injections, whereas animals in Group IV received oral administration. The Compound 2, vehicle and cyclophosphamide treatment was terminated on Day 2. These groups of animals were maintained on daily IMQ treatments until Day 6. On Day 7, the psoriasis-induced animals were re-randomized into 3 groups consisting of 10 animals each based on Cumulative Disease Activity Index (CDAI). From Day 7 to Day 9, animals received vehicle or positive control or Compound 2. Of note, on these days animals were not treated with IMQ. From Day 10 to Day 14, the animals were treated alternatively with IMQ (Days 10, 12 and 14), or vehicle, positive control or Compound 2 (Days 11, 13).
All animals were observed daily for a period of 16 days for gross observations, body weight and feed and water intake. On Days 1 and 2, scorings of erythema, scaling, folding and thickening of skin were recorded 2 hours after administration of vehicle/positive control/test compounds, and on Days 3 to 14 scorings were recorded 4 hours after IMQ application, or administration of positive control, vehicle or Compound 2.
Vehicle was prepared by dissolving 40 mg of HPBCD in 70.0 mL of distilled water. Compound 2 was prepared by dissolving 3.59 mg in 0.5% PVP and 0.5% Pluronic. Cyclophosphamide was prepared by dissolving 500 mg of CMC in 100 mL distilled water.
The experimental results shown in Table 10 are expressed as mean±SEM. Data was assessed using one-way ANOVA, and post hoc analysis was performed using Dunnett's test.

[2] = Pharmacokinetics (plasma AUCInf) in mice; type: in vivo; conditions: 10 mg/kg po
Protocol: Blood was collected from mice (N=3) to contribute to the total of 10 time points (pre-dose, 5 min, 15 min, 30 min, 1 hour, 2 hours, 4 hours, 8 hours, 12 hours and 24 hours post dose). Mice were bled on a rotating basis, each mouse contributing 3 time points to the blood collection. At the designated time points, animals were anaesthetized under isoflurane, and approximately 110 μL of blood per time point was collected via retro-orbital puncture into pre-cooled K2EDTA (anti-coagulant) tubes. Blood samples were put on wet ice and centrifuged (2000 g, 5 min at 4° C.) to obtain plasma within 30 minutes of sample collection. All samples were stored frozen at approximately −80° C. until analysis. Prior to analysis, samples were mixed with internal standard (dexamethasone) in acetonitrile, vortexed, centrifuged, and supernatant was injected for analysis. Concentration of compounds in plasma was determined using LC-MS-MS instrumentation (API 4000, Triple Quadruple with electrospray ionization; Acuity Ultra Performance Liquid Chromatography column C18, with MeOH and formic acid as organic solvents). PK parameters including but not limited to Tmax, Cmax, t1/2, AUClast, AUCInf were calculated using WinNonlin Professional 6.2 software package, non-compartmental pharmacokinetic model NCA200.

A549 xenograft tumors = test: A549 lung carcinoma xenograft in SCID mice; type: in vivo; conditions: for mean tumor volume: 5 mg/kg IP Days 1, 15
Protocol: The A549 cell line was derived from explant culture of alveolar carcinoma tissue from a person. The cells were grown in Ham's F12-K tissue culture media with 10% fetal calf serum and 1% penicillin/streptomycin. Cells were routinely trypsinized and passaged 1:10. Thirty-two (32) female CB-17 SCID mice (Charles River Labs strain code 236), aged 5 to 6 weeks were used with a mean pre-treatment body weight of 16.3 grams. Mice were divided into four (4) groups of eight (8) prior to the initiation of treatment based on tumor volume. On the day of implantation, cells were washed in PBS, trypsinized and resuspended in complete media to a density of 2×10^7 cells/mL prior to being mixed with an equal volume of Matrigel. This mixture was then inoculated subcutaneously into mice in a volume of 0.1 mL using a 23G needle.
Animal weights and condition were recorded daily, and tumors were measured on Mondays, Wednesdays and Fridays with micro-calipers, and tumor volume was calculated as (length×width×width)/2.
Animals with weight loss of more than 20% of their starting weight were euthanized. Mice with weight loss of more than 15% of their starting weight were not treated again until weight loss recovered to less than 5% of their starting weight. Any animals with a tumor volume of more than 1500 mm^3 were euthanized.
Dosing solutions were prepared fresh on each day of dosing. Compound 2 was supplied as a lyophilized powder containing 69.61% Compound 2 with the balance made up of Pluronic F-68 and PVP K29/32. This was prepared by dissolving the lyophilized powder in sterile water. Cisplatin was dissolved at 5 mg/mL in DMSO and diluted 1:10 in sterile water for injection. All test articles were administered in a volume of 0.1 mL/10 g body weight.
Statistical differences between treatment groups were determined using Mann-Whitney Rank Sum or ANOVA tests with a critical value of 0.05.

For `O=C(/C=C\n1cnc(-c2cc(C(F)(F)F)cc(C(F)(F)F)c2)n1)NNC(=O)C(=O)N1CCOCC1` [Compound 12, (Z)-3-(3-(3,5-bis(trifluoromethyl)phenyl)-1H-1,2,4-triazol-1-yl)-N′-(2-morpholino-2-oxoacetyl)acrylohydrazide], the pIC50 (NF-κB) was 5.84.
In the case of `O=C(/C=C\n1cnc(-c2cc(C(F)(F)F)cc(C(F)(F)F)c2)n1)N1CC(F)(F)C1` [Compound X-3], the “B:P” value ([1]; mice, 10 mg/kg po, 2 hours post-dose) was 5.0.
For `O=P1(N(CCCl)CCCl)NCCCO1` (stereo not drawn) [cyclophosphamide, reference compound], the “Rate of reduction of DAI, % change from 1st dose administration” value (from here on “Rate of reduction of DAI, % change”) (IMQ-induced psoriasis; Day 7, 4 hr. post-IMQ/drug administration readings) was 23.3%, the “Rate of reduction of DAI, % change” value (IMQ-induced psoriasis; Day 7, pre-IMQ/drug administration readings) was 0.0% and the “Rate of reduction of DAI, % change” value (IMQ-induced psoriasis; Day 8, 4 hr. post-IMQ/drug administration readings) was 20.9%. For the same molecule, the “Rate of reduction of DAI, % change” value (IMQ-induced psoriasis; Day 8, pre-IMQ/drug administration readings) was 16.3%, the “Rate of reduction of DAI, % change” value (IMQ-induced psoriasis; Day 9, 4 hr. post-IMQ/drug administration readings) was −41.9% and the “Rate of reduction of DAI, % change” value (IMQ-induced psoriasis; Day 9, pre-IMQ/drug administration readings) was −39.5%. For the same molecule, the “Rate of reduction of DAI, % change” value (IMQ-induced psoriasis; Day 10, 4 hr. post-IMQ/drug administration readings) was −86.0%, the “Rate of reduction of DAI, % change” value (IMQ-induced psoriasis; Day 10, pre-IMQ/drug administration readings) was −79.1% and the “Rate of reduction of DAI, % change” value (IMQ-induced psoriasis; Day 11, 4 hr. post-IMQ/drug administration readings) was −25.6%. The “Rate of reduction of DAI, % change” value (IMQ-induced psoriasis; Day 11, pre-IMQ/drug administration readings) was −25.6%, the “Rate of reduction of DAI, % change” value (IMQ-induced psoriasis; Day 12, 4 hr. post-IMQ/drug administration readings) was −34.9% and the “Rate of reduction of DAI, % change” value (IMQ-induced psoriasis; Day 12, pre-IMQ/drug administration readings) was −39.5%. The “Rate of reduction of DAI, % change” value (IMQ-induced psoriasis; Day 13, 4 hr. post-IMQ/drug administration readings) was −32.6%, the “Rate of reduction of DAI, % change” value (IMQ-induced psoriasis; Day 13, pre-IMQ/drug administration readings) was −25.6% and the “Rate of reduction of DAI, % change” value (IMQ-induced psoriasis; Day 14, 4 hr. post-IMQ/drug administration readings) was −32.6%. For the same molecule, the “Rate of reduction of DAI, % change” value (IMQ-induced psoriasis; Day 14, pre-IMQ/drug administration readings) was −34.9% and the “Rate of reduction of DAI, % change” value (IMQ-induced psoriasis; Day 15, pre-IMQ/drug administration readings) was −41.9%.
In the case of `COc1cc(-c2ncn(/C=C\C(=O)OC(C)C)n2)cc(C(F)(F)F)c1` [Compound X-1], the AUCInf [2] was “below the limit of detection” and the “levels in the brain” value ([1]; dosed po) was “below the quantitation limit”.
For `N.N.[Cl][Pt][Cl]` [cisplatin, reference compound], the “tumor growth versus vehicle control group (mean AUC of tumor volume, one-way ANOVA)” value (A549 xenograft tumors; Compound 2 5 or 10 mg/kg PO, cisplatin 5 mg/kg IP) was “no statistically significant reduction in tumor growth”, the mean tumor volume (A549 xenograft tumors; Day 1) was 104 mm^3 and the mean tumor volume (A549 xenograft tumors; Day 29) was 1136 mm^3.
